According to patent US10745778B2, “Leaching aids and methods of using leaching aids” (BASF SE, priority 2015, dated 2020):

Experiment: Surface tension of synthetic pregnant leaching solution (Example 4)
Assay type: physicochemical
Details: synthetic PLS 6 g/L copper, 2 g/L iron, pH about 2.0
Protocol: This example investigated a method for determining the impact of a leaching aid on the surface tension of a typical leaching solution. A synthetic pregnant leaching solution (“PLS”) of 6 g/L copper and 2 g/L iron at a pH of about 2.0 was prepared in deionized (“DI”) water to form a quality control (“QC”) feed. To this, mixtures of synthetic PLS having varying levels of Leach aid A (i.e., MC1000) or Leach Aid B (i.e., TMP-7(EO)) were prepared and the surface tension of each solution was measured.

- surface tension as a function of concentration of the leaching aid: decreased with increasing concentration
SMILES: CCCCCCCCCC[N+](C)(C)CC(=O)[O-] [MC1000]
